Values belong to the molecule of their own block, whether it stands above or below them.
Legend:
[1] = Phase II clinical trial NCT01393730: serum Abi metabolites before and after dutasteride; assay type: in vivo, human
Description: Twelve patients with CRPC undergoing treatment with Abi acetate at Cleveland Clinic were consented under an Institutional Review Board—approved protocol (Case 7813). Blood was collected using Vacutainer Plus serum blood collection tubes (#BD367814, Becton Dickenson, Franklin Lakes, N.J.), between 1 and 16 hours after the 1000 mg daily dose of Abi acetate was administered, and allowed to clot. Tubes were centrifuged at 2500 RPM or 1430×g for 10 minutes. Serum aliquots were frozen at −80° C. until processing. To study the effect of dutasteride on Abi metabolism, serum samples were collected from patients treated on a phase II clinical trial at Dana-Farber Cancer Institute (NCT01393730). Each patient received Abi acetate (1,000 mg daily) plus prednisone (5 mg daily) for 2 cycles (8 weeks) and then additional treatment with dutasteride ([…]) was initiated. Samples were collected on treatment with Abi alone and after addition of dutasteride (start of cycles 3, 4 and 7). Seventeen patients treated at this institution on this clinical trial had blood available from all 3 time points. One patient had Abi concentrations that were under the limit of detection and was later determine to have stopped treatment because of adverse effects and was therefore not included in the analysis. Drug metabolites and internal standard (d4-abiraterone, Toronto Research Chemicals Inc, Ontario Canada) were extracted from 100 μL of patient serum with methyl tert-butyl ether (Sigma Aldrich, St. Louis, Mo.), evaporated under a stream of nitrogen gas and reconstituted in methanol:water (50:50) prior to mass spectrometry analysis. Standard curves were generated using human serum spiked with known concentrations of each metabolite to enable determination of unknown concentrations in patient samples
Samples were analyzed on a ultra high-performance liquid chromatography station (Shimadzu, Kyoto, Japan) with a DGU-20A3R degasser, 2 LC-30AD pumps, a SIL-30AC autosampler, a CTO-10A column oven and a CBM-20A system controller in tandem with a QTRAP 5500 mass spectrometer (AB Sciex, Framingham, Mass.). Drug metabolites were ionized using electrospray ionization in positive ion mode. Multiple reaction monitoring was used to follow mass transitions for Abi, IS, and the metabolites (Table 1). Due to the similarity in structure and mass transitions for the metabolites it was necessary to separate them with chromatography. Separation of drug metabolites was achieved using a mobile phase consisting of LC-MS grade (Fisher) methanol: acetonitrile: water:formic acid (39:26:34:1) at a flow rate of 0.2 ml/min., and C18 analytical column; Zorbax Eclipse plus 150×2.1 mm, 3.5 μm (Agilent, Santa Clara, Calif.).

CYP17A1 = molecular target: T1, CYP17A1 (Homo sapiens, UniProt P05093); assay: Conversion of [3H]-pregnenolone to DHEA in 293 cells expressing CYP17A1; assay type: cell-based; conditions: 1 nM drug; 3 h incubation; vehicle 70.1%
T1 construct: expressed in transfected cells
T1 sequence (P05093 1-508): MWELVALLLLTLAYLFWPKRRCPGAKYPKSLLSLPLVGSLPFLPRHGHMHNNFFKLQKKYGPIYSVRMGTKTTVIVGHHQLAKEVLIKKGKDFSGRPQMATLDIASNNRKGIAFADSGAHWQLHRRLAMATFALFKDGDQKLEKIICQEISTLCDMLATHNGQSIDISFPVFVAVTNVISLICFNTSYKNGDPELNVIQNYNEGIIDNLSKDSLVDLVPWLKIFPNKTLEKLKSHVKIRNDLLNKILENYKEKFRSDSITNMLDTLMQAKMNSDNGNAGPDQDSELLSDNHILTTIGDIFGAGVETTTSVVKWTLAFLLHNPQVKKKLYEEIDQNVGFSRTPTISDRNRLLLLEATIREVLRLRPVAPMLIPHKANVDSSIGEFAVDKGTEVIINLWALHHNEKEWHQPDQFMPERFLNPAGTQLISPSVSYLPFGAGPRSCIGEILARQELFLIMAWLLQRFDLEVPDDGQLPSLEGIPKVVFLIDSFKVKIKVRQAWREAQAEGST
Excerpt: LNCaP and VCaP cells were purchased from the American Type Culture Collection (Manassas, Va.) and maintained in RPMI-1640 with 10% FBS. LAPC4 cells were kindly provided by Dr. Charles Sawyers (Memorial Sloan Kettering Cancer Center, New York, N.Y.) and grown in Iscove's Modified Dulbecco's Medium with 10% FBS. C4-2 cells were kindly provided by Dr. Leland Chung (Cedars-Sinai Medical Center, Los Angeles, Calif.) and maintained in RPMI-1640 with 10% FBS. All experiments done with LNCaP and VCaP were done in plates coated with poly-DL-ornithine (Sigma-Aldrich, St. Louis, Mo.). A 293 cell line stably expressing human CYP17A1 was generated by transfection with plasmid pcDNA3-CYP17 (a generous gift of Dr. Walter Miller, University of California, San Francisco) and selection with G418. Cell lines was authenticated by DDC Medical (Fairfield, Ohio) and determined to be […] mycoplasma free with primers.
Cell Line Metabolism: Cells were seeded and incubated in 12-well plates with 0.2 million cells/well for ˜24 h and then incubated with a mixture of radioactive ([^3H]-labeled) and non-radioactive androgens (final concentration, 100 nM; ˜1,000,000 cpm/well; PerkinElmer, Waltham, Mass.) at 37° C. Aliquots of medium were collected at the indicated times. Collected medium was treated with 1,000 units of β-glucuronidase (Helix pomatia; Sigma-Aldrich) at 65° C. for 2 h, extracted with 860 μL ethyl acetate:isooctane (1:1), and concentrated under nitrogen gas. Xenograft Metabolism: 10^7 LNCaP or VCaP cells were injected subcutaneously with Matrigel into surgically orchiectomized NSG mice that were implanted with 5 mg 90-day sustained-release DHEA pellets (Innovative Research of American, Sarasota, Fla.). Xenografts were harvested when they reached 1000 mm^3, minced, and cultured in DMEM with 10% FBS at 37° C. with mixture of radioactive ([^3H]-labeled) and non-radioactive androgens, or Abi, when they reached 1000 mm^3. Each xenograft was analyzed in triplicate in at least three independent experiments. Aliquots of medium were collected at the indicated times. […]
Dried samples were reconstituted in 50% methanol and injected into the HPLC. […] Alternatively, dried samples were applied to plastic-backed silica gel plates and separated by thin-layer chromatography (TLC) using a mobile phase of 3:1 chloroform:ethyl acetate, followed by exposure of the plates to a phosphorimager screen and quantitated with a Storm model 860 phosphorimager (Applied Biosystems, Foster City, Calif.). […]
Cell lines, drugs and constructs. […] Cell lines were authenticated by DDC Medical (Fairfield, Ohio) and determined to be mycoplasma free with primers. […]

[2] = patients; wide interpatient variability; cited from earlier work
SRD5A1 = molecular target: T2, SRD5A1 (Homo sapiens, UniProt P18405); conditions: LAPC4 cells
T2 sequence (P18405 1-259): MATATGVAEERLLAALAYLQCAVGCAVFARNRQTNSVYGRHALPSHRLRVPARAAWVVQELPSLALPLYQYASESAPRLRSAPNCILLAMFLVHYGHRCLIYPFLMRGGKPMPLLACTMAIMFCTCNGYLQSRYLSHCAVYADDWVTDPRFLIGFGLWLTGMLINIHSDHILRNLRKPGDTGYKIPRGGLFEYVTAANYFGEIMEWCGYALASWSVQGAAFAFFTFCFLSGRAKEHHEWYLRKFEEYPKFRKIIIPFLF
Description: Cell Line Metabolism: 0.2 million/ml cells were seeded and incubated in 12-well plates for ˜24 h before incubation with the indicated drugs or a mixture of [^3H]-labeled (˜1,000,000 cpm/well; PerkinElmer, Waltham, Mass.) and non-radioactive androgens (final concentration, 100 nM) at 37° C. Collected medium was treated with β-glucuronidase (Helix pomatia; Sigma-Aldrich), extracted with ethyl acetate:isooctane (1:1), and concentrated under nitrogen gas as described.
Dried samples were reconstituted in 50% methanol and separated on Kinetex 100×2.1 mm, 2.6 μm particle size C18 reverse-phase column (Phenomenex, Torrance, Calif.) using a methanol/water gradient at 30° C. The column effluent was analyzed using a 254 nm UV-visible detector or β-RAM model 3 in-line radioactivity detector (IN/US Systems, Inc.) using Liquiscint scintillation cocktail (National Diagnostics, Atlanta, Ga.). All HPLC studies were conducted in triplicate and repeated at least 3 times in independent experiments. Results are shown as mean±SD.

SRD5A = molecular target: T3, SRD5A (Homo sapiens, UniProt P18405); assay: Conversion of [3H]-AD to 5α-reduced androgens in LAPC4 cells; assay type: cell-based; conditions: up to 100 μM; LAPC4 cells
T3 construct: endogenous in cells; host or cells: LAPC4
T3 sequence (P18405 1-259): T2 sequence (P18405 1-259)
Description: Cell Line Metabolism: Cells were seeded and incubated in 12-well plates with 0.2 million cells/well for ˜24 h and then incubated with a mixture of radioactive ([^3H]-labeled) and non-radioactive androgens (final concentration, 100 nM; ˜1,000,000 cpm/well; PerkinElmer, Waltham, Mass.) at 37° C. Aliquots of medium were collected at the indicated times. Collected medium was treated with 1,000 units of β-glucuronidase (Helix pomatia; Sigma-Aldrich) at 65° C. for 2 h, extracted with 860 μL ethyl acetate:isooctane (1:1), and concentrated under nitrogen gas. Xenograft Metabolism: 10^7 LNCaP or VCaP cells were injected subcutaneously with Matrigel into surgically orchiectomized NSG mice that were implanted with 5 mg 90-day sustained-release DHEA pellets (Innovative Research of American, Sarasota, Fla.). Xenografts were harvested when they reached 1000 mm^3, minced, and cultured in DMEM with 10% FBS at 37° C. with mixture of radioactive ([^3H]-labeled) and non-radioactive androgens, or Abi, when they reached 1000 mm^3. Each xenograft was analyzed in triplicate in at least three independent experiments. Aliquots of medium were collected at the indicated times. Collected medium was treated with 1,000 units of β-glucuronidase at 65° C. for 2 h, extracted with 860 μL ethyl acetate:isooctane (1:1), and concentrated under nitrogen gas.
Dried samples were reconstituted in 50% methanol and injected into the HPLC. Steroids and drug metabolites were separated on Kinetex 100×2.1 mm, 2.6 μm particle size C18 reverse-phase column (Phenomenex, Torrance, Calif.) using a methanol/water gradient at 30° C. […] Alternatively, dried samples were applied to plastic-backed silica gel plates and separated by thin-layer chromatography (TLC) using a mobile phase of 3:1 chloroform:ethyl acetate, followed by exposure of the plates to a phosphorimager screen and quantitated with a Storm model 860 phosphorimager (Applied Biosystems, Foster City, Calif.). […] Results are shown as mean±SD.
Collected medium was treated with β-glucuronidase (Helix pomatia; Sigma-Aldrich), extracted with ethyl acetate:isooctane (1:1), and concentrated under nitrogen gas as described. Li et al., 523, 347-351 (2015).
Dried samples were reconstituted in 50% methanol and separated on Kinetex 100×2.1 mm, 2.6 μm particle size C18 reverse-phase column (Phenomenex, Torrance, Calif.) using a methanol/water gradient at 30° C. […] Results are shown as mean±SD.

LNCaP cells = assay: Cell proliferation assay, DHT-stimulated growth; assay type: cell-based, human; conditions: DHT 0.5 nM, 2, 4 and 6 days
Description: LNCaP cells (0.1 million/mL) were seeded in 96-well plates and cultured in phenol red free RPMI-1640 mediums plus 10% charcoal stripped FBS with androgens and/or drugs. Medium was changed every other day. After 2, 4 or 6 days, cells were collected and lysed after treatment. Growth was then determined based on DNA content as detected by Hoechst stain and a Wallac Victor2 1420 Multilabel counter (Perkin Elmer). Two-tailed student's t-test was used to determine significance.

Structure (SMILES): C[C@]12CC[C@H](O)C[C@@H]1CC[C@@H]1[C@@H]2CC[C@]2(C)C(c3cccnc3)=CC[C@@H]12 [Compound 3β-OH-5α-Abi, 17-(3-pyridyl)-5α-androsta-16-ene-3β-ol]
decline in mean serum concentration after the addition of dutasteride ([1]; cycle 3 vs. cycle 4): 73%

Structure (SMILES): C[C@]12C=CC(=O)N[C@@H]1CC[C@@H]1[C@@H]2CC[C@]2(C)[C@@H](C(=O)Nc3cc(C(F)(F)F)ccc3C(F)(F)F)CC[C@@H]12 [dutasteride]
block of conversion of D4A to 5α-Abi and 3α-OH-5α-Abi (SRD5A1): blocks conversion

Structure (SMILES): CNC(=O)c1ccc(N2C(=S)N(c3ccc(C#N)c(C(F)(F)F)c3)C(=O)C2(C)C)cc1F [enzalutamide, reference compound]
effect on conversion from AD to 5α-reduced androgens (SRD5A): no detectable effect
effect on DHT-stimulated cell growth (LNCaP cells): more potent than Abi

Continued, in another order:

mean serum concentration, cycle 3 ([1]; Abi acetate 1000 mg daily plus prednisone alone, 16 patients): 191.2 nM
mean serum concentration, cycle 4 ([1]; after addition of dutasteride 3.5 mg once daily, 16 patients): 372.4 nM
% conversion to DHEA (CYP17A1): 2.6%
Structure (SMILES): C[C@]12CC[C@H](O)CC1=CC[C@@H]1[C@@H]2CC[C@]2(C)C(c3cccnc3)=CC[C@@H]12 [Abi, Abiraterone, reference compound]
Cmax [2]: ~1000 nM

block of conversion of D4A to 5α-Abi and 3α-OH-5α-Abi (SRD5A1): blocks conversion
Structure (SMILES): CN1C(=O)CC[C@@H]2c3ccc(Cl)cc3CC[C@H]21 [LY191704]

Source: patent US10265329B2, “Altering steroid metabolism for treatment of steroid-dependent disease” (THE CLEVELAND CLINIC FOUNDATION, priority 2015, dated 2019)
